pIC50: −log10 of the molar value. In brackets after ≈: the same amount, converted by molar mass.
Key:
[1] = Cmax in mouse at 400 mg/kg, ip; assay type: ADME, organism-based; design: dose 400 mg/kg, route ip; conditions: in vivo
[2] = Stability in human liver microsomes assessed as half life; assay type: ADME, Microsome
[3] = Solubility of compound in PBS at pH 7.4 at 37 degreeC measured after 24 hrs; assay type: physicochemical
[4] = Stability in rat plasma assessed as half life; assay type: ADME, cell-free
[5] = Apparent permeability across basolateral to apical side in human Caco-2 cells; assay type: ADME, cell-based
[6] = AUC in mouse at 400 mg/kg, ip; assay type: ADME, organism-based; design: dose 400 mg/kg, route ip; conditions: in vivo
[7] = Solubility of compound in HCl at pH 1.2 at 37 degreeC measured after 24 hrs; assay type: physicochemical
[8] = Stability in mouse plasma assessed as half life; assay type: ADME, cell-free
[9] = Half life in mouse at 400 mg/kg, ip; assay type: ADME, organism-based; conditions: in vivo
[10] = Stability in rat liver microsomes assessed as half life; assay type: ADME, Microsome
[11] = Apparent permeability across apical to basolateral side in human Caco-2 cells; assay type: ADME, cell-based
[12] = Clearance in mouse at 400 mg/kg, ip; assay type: ADME, organism-based; conditions: in vivo
[13] = Tmax in mouse at 400 mg/kg, ip; assay type: ADME, organism-based; conditions: in vivo
[14] = Lipophilicity, logD of the compound at 37 degreeC; assay type: physicochemical; conditions: octanol/water
[15] = Stability in dog liver microsomes assessed as half life; assay type: ADME, Canis lupus familiaris, Microsome
[16] = Stability in human plasma assessed as half life; assay type: ADME, cell-free
[17] = Stability in porcine plasma assessed as half life; assay type: ADME, cell-free, Sus scrofa; conditions: pig
[18] = target: T1, Polyamine deacetylase HDAC10 (Homo sapiens, UniProt Q969S8); experiment: Inhibition of human HDAC10 using FAM-labeled acetylated peptide as substrate incubated for 17 hrs by fluorescence based assay
T1 sequence (Q969S8 whole entry): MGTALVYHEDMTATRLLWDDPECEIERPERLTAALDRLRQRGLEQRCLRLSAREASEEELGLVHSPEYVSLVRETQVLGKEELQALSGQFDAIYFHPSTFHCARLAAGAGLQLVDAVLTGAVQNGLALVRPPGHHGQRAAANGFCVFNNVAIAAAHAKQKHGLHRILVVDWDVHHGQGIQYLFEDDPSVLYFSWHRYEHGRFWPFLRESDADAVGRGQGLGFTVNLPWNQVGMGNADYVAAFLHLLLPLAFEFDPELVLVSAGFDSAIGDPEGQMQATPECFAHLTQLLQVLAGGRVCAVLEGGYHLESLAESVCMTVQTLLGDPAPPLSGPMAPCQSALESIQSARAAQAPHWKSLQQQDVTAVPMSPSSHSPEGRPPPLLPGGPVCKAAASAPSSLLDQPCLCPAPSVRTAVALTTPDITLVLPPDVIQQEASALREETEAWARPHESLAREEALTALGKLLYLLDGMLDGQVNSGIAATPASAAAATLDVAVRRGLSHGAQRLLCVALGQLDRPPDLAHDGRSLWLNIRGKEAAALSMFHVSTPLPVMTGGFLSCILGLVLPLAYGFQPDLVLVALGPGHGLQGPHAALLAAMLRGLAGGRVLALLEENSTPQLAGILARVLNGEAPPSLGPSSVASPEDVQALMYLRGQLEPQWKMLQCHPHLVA

Histone deacetylase 1 [19] = target: T2, Histone deacetylase 1 (Homo sapiens, UniProt Q13547); experiment: Inhibition of human HDAC1 using FAM-labeled acetylated peptide as substrate incubated for 17 hrs by fluorescence based assay
[20] = target: T3, Protein deacetylase HDAC6 (Homo sapiens, UniProt Q9UBN7); experiment: Inhibition of human HDAC6 using FAM-labeled acetylated peptide as substrate incubated for 17 hrs by fluorescence based assay
T3 sequence (Q9UBN7 whole entry): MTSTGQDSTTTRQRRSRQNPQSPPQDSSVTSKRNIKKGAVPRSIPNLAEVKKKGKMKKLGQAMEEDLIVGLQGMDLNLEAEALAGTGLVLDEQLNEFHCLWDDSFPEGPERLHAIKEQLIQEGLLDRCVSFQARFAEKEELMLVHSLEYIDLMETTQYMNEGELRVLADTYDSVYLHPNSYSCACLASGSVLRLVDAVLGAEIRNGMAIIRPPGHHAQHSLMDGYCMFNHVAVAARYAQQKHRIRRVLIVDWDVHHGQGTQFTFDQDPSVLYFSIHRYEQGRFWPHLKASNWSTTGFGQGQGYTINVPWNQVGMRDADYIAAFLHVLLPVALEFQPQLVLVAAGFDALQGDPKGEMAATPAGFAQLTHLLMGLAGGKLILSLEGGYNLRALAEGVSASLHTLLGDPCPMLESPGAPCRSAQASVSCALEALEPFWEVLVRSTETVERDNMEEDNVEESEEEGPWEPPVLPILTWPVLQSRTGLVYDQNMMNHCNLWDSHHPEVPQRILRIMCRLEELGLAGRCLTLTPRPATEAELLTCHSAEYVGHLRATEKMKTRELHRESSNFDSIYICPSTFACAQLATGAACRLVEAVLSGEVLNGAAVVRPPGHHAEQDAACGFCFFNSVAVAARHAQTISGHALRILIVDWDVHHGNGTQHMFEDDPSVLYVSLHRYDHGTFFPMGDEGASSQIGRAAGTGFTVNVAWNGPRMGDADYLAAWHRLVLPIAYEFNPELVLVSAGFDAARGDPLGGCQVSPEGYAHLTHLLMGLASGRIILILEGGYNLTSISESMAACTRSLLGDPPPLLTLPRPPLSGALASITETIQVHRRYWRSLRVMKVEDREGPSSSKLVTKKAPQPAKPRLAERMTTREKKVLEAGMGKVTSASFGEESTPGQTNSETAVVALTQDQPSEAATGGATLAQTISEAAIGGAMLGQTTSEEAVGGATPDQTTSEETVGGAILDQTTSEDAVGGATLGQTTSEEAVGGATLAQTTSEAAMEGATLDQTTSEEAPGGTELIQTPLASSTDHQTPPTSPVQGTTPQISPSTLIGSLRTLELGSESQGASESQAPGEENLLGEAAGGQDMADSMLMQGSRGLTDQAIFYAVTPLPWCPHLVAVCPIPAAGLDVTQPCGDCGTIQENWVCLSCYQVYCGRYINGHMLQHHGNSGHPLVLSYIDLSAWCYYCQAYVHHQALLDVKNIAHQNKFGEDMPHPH

Histone deacetylase 8 = target: T4, Histone deacetylase 8 (Homo sapiens, UniProt Q9BY41); experiment: Inhibition of human HDAC8 using FAM-labeled acetylated peptide as substrate incubated for 17 hrs by fluorescence based assay
T4 sequence (Q9BY41 whole entry): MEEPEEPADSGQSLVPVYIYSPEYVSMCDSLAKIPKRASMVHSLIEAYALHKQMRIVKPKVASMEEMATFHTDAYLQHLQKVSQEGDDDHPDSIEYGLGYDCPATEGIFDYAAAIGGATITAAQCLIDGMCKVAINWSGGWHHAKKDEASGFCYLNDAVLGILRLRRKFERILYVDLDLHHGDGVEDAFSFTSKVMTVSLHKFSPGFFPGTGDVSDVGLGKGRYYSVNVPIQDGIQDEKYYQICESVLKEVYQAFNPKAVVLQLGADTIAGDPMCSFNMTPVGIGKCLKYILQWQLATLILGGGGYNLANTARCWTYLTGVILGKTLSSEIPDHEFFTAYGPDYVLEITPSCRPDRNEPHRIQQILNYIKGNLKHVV

Histone deacetylase 2 [21] = target: T5, Histone deacetylase 2 (Homo sapiens, UniProt Q92769); experiment: Inhibition of human HDAC2 using FAM-labeled acetylated peptide as substrate incubated for 17 hrs by fluorescence based assay
Histone deacetylase 1 [22] = target: T2, Histone deacetylase 1; experiment: Inhibition of human HDAC1
Histone deacetylase 1 [23] = target: T2, Histone deacetylase 1; experiment: Inhibition of human full length recombinant HDAC1 expressed in baculovirus infected Sf9 cells using RHKKAc as substrate preincubated for 5 to 10 mins followed by substrate addition and measured after 2 hrs by fluorescence based analysis
[24] = target: T3, Protein deacetylase HDAC6; experiment: Inhibition of human full length recombinant HDAC6 expressed in baculovirus infected Sf9 cells using RHKKAc as substrate preincubated for 5 to 10 mins followed by substrate addition and measured after 2 hrs by fluorescence based analysis
Histone deacetylase 2 [25] = target: T5, Histone deacetylase 2; experiment: Inhibition of human full length recombinant HDAC2 expressed in baculovirus infected Sf9 cells using RHKKAc as substrate preincubated for 5 to 10 mins followed by substrate addition and measured after 2 hrs by fluorescence based analysis
Histone deacetylase = experiment: Inhibition of HDAC (unknown origin); assay type: protein assay, Homo sapiens
Histone deacetylase 4 = Histone deacetylase 4 (Homo sapiens, UniProt P56524); experiment: Inhibition of HDAC4 (unknown origin)
[26] = target: T1, Polyamine deacetylase HDAC10; experiment: Inhibition of HDAC10 (unknown origin)

T2 sequence (Q13547 whole entry): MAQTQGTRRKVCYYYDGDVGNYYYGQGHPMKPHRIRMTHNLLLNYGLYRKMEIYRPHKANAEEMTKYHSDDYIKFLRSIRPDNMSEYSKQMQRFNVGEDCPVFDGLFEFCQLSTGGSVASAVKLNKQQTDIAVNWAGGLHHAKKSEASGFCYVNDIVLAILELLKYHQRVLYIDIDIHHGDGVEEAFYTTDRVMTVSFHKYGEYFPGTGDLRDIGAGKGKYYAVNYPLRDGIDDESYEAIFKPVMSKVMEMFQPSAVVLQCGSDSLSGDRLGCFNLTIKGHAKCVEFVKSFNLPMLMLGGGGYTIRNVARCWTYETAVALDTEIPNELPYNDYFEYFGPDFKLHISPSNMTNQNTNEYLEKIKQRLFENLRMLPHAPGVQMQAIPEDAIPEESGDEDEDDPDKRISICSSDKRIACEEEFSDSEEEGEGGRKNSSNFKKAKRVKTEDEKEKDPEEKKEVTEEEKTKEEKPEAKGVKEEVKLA
T5 sequence (Q92769 whole entry): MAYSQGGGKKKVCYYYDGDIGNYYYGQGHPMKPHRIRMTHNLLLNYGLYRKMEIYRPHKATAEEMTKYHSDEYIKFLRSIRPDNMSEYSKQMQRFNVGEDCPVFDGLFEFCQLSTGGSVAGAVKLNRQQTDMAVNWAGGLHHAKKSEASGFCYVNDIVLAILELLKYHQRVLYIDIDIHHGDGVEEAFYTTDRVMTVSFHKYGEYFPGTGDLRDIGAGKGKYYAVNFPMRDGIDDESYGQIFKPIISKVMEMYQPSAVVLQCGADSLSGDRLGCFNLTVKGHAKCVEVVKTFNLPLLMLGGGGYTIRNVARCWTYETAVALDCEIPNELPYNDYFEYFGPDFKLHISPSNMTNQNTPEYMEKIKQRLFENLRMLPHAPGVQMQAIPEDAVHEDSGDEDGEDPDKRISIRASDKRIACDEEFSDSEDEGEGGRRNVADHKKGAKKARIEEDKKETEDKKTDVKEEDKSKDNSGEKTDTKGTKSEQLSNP
Sequence of Histone deacetylase 4 (P56524 whole entry): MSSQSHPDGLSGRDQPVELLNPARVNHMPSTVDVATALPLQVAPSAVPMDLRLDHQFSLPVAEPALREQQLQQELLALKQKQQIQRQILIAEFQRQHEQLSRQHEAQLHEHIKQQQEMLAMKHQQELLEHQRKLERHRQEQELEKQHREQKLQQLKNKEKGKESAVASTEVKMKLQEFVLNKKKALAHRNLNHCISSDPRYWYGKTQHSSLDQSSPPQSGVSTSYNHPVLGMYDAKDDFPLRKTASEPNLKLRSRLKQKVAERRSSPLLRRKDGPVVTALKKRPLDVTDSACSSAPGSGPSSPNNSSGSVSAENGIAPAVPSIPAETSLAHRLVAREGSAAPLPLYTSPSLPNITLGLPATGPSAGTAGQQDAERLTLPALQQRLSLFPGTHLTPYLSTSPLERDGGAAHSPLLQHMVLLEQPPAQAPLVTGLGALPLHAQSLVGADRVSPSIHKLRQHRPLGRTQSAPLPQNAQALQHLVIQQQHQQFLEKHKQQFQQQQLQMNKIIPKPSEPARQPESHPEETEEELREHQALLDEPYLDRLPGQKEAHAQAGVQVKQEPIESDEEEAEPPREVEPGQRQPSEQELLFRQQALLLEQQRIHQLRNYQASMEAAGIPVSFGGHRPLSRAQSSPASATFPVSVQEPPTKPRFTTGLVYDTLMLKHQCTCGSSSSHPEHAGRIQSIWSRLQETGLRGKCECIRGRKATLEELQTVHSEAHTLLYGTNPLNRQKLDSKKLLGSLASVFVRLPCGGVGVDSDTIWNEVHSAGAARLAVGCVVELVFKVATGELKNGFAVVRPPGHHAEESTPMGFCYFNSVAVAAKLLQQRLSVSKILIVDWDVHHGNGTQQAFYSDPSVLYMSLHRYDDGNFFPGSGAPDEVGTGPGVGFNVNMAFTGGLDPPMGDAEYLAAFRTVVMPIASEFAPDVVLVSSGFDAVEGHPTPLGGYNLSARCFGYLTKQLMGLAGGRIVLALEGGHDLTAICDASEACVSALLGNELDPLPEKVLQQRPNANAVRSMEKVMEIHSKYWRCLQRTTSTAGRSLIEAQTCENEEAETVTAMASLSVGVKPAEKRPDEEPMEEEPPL

| SMILES | pIC50 (Histone deacetylase 1 [23]) | pIC50 [24] | pIC50 (Histone deacetylase 2 [25]) | further results |
| --- | --- | --- | --- | --- |
| CN(C)c1ccc(C(=O)NCCCCCNC(=O)CS)cc1 | – | – | – | Cmax [1]: 1540 nM; half-life [2]: 1.13 h; solubility at 24 h [3]: 120 µg/mL (≈ 371 µM); half-life [4]: 1.65 h; Papp B→A [5]: 10 ×10⁻⁶ cm/s; AUC [6]: 4.23 µM·h; solubility at 24 h [7]: 1000 µg/mL (≈ 3090 µM); half-life [8]: 2.88 h; half-life [9]: 1.98 h; half-life [10]: 1.17 h; Papp A→B [11]: 7.33 ×10⁻⁶ cm/s; CL/F [12]: 81.2 mL/min; Tmax [13]: 0.5 h; logD [14]: 2.19; half-life [15]: 0.717 h; half-life [16]: 1.28 h; half-life [17]: 1.48 h |
| N[C@@H](Cc1ccccc1)C(=O)Nc1ccccc1-c1ccc(NC(=O)CCCCCNC(=O)CS)cc1 | – | – | – | pIC50 [18]: 5.14; pIC50 (Histone deacetylase 1 [19]): 5.56; pIC50 [20]: 6.35; pIC50 (Histone deacetylase 8): 5.28; pIC50 (Histone deacetylase 2 [21]): < 4.52 |
| NCC(=O)Nc1ccccc1-c1ccc(NC(=O)CCCCCNC(=O)CS)cc1 | – | – | – | pIC50 [18]: 5.13; pIC50 (Histone deacetylase 1 [19]): 5.40; pIC50 [20]: 6.41; pIC50 (Histone deacetylase 8): 5.22; pIC50 (Histone deacetylase 2 [21]): 4.80 |
| O=C(CS)NCCCCCn1ccc2cc(Cl)c(Cl)cc21 | – | – | – | pIC50 (Histone deacetylase 1 [22]): 5.10 |
| Cc1onc(-c2ccccc2)c1/C=C/CCCCCNC(=O)CS | 4.55 | 5.46 | – | – |
| Cc1onc(-c2ccccc2)c1C(=O)NCCCCCNC(=O)C(C)(C)S | < 4.52 | < 4.52 | < 4.52 | – |
| Cc1onc(-c2ccccc2)c1/C=C\CCCCCNC(=O)CS | < 4.52 | 5.32 | – | – |
| Cc1onc(-c2ccccc2)c1C(=O)NCCCCCNC(=O)[C@H](C)S | < 4.52 | < 4.52 | < 4.52 | – |
| Cc1noc(-c2ccccc2)c1C#CCCCCNC(=O)C(C)(C)S | < 4.52 | < 4.52 | < 4.52 | – |
| Cc1onc(-c2ccccc2)c1/C=C/c1ccc(CNC(=O)C(C)(C)S)cc1 | < 4.52 | < 4.52 | < 4.52 | – |
| Cc1onc(-c2ccccc2)c1COCCCCCNC(=O)[C@@H](C)S | 5.82 | 6.08 | – | – |
| Cc1onc(-c2ccccc2)c1COCCCCCNC(=O)[C@H](C)S | < 4.52 | < 4.52 | – | – |
| Cc1noc(-c2ccccc2)c1C#CCCCCCNC(=O)C(C)(C)S | < 4.52 | < 4.52 | < 4.52 | – |
| Cc1onc(-c2ccccc2)c1C=CCCCCCNC(=O)C(C)(C)S (mixture of isomers) | < 4.52 | < 4.52 | < 4.52 | – |
| Cc1onc(-c2ccccc2)c1C=CCCCCCNC(=O)C(C)S (mixture of isomers) | < 4.52 | 5.01 | < 4.52 | – |
| Cc1onc(-c2ccccc2)c1C=CCCCCCNC(=O)CS (mixture of isomers) | < 4.52 | 5.57 | < 4.52 | – |
| CC(C)C(NC(=O)CCNC(=O)CS)C(=O)Nc1cnc2ccccc2c1 (racemic) | – | – | – | IC50 (Histone deacetylase): 25.1 µM |
| Cc1noc(-c2cccc(F)c2)c1C#CCCCCCNC(=O)C(C)S (racemic) | 5.43 | 5.59 | 5.03 | – |
| Cc1onc(-c2ccccc2)c1C(=O)NCCCCCNC(=O)C(C)S (racemic) | < 4.52 | 5.96 | < 4.52 | – |
| Cc1onc(-c2ccccc2)c1/C=C/c1ccc(CNC(=O)C(C)S)cc1 (racemic) | < 4.52 | < 4.52 | < 4.52 | – |
| Cc1noc(-c2ccccc2)c1C#CCCCCCNC(=O)C(C)S (racemic) | 5.57 | 5.70 | 5.12 | – |
| CC(C)C(NC(=O)CCCNC(=O)CS)C(=O)Nc1cnc2ccccc2c1 (racemic) | – | – | – | IC50 (Histone deacetylase): 3.02 µM |
| Cc1onc(-c2ccccc2)c1COCCCCCNC(=O)C(C)S (racemic) | 5.02 | 6.07 | 4.85 | – |
| O=C(/C=C/c1cccc(S(=O)(=O)Nc2ccccc2)c1)NO [BELINOSTAT] | – | – | – | pIC50 (Histone deacetylase 4): 5.91; pIC50 [26]: 7.51 |
| O=C(CCCCCCC(=O)Nc1ccccc1)NO [VORINOSTAT] | – | – | – | Papp B→A [5]: 6.33 ×10⁻⁶ cm/s; Papp A→B [11]: 3 ×10⁻⁶ cm/s |
